Assay results from US6562820B2, “Method for treatment and prevention of mastitis” (Pharmacia & Upjohn Company, priority 2000, dated 2003).

Key:
Type in all cases: in vivo
[1] = test system: cow in dry period with moderate mastitis; experiment: Treatment of mastitis in a dry-period cow by intramammary infusion; conditions: 3-lactation cow in dry period, 300 mg once per day for 5 days, solution
Description: A 3-lactation cow in dry period with moderate mastitis is administered 300 mg of the oxazolidinone in EXAMPLE 1, once per day for 5 days. The oxazolidinone is formulated as a solution and administered by intramammary infusion.

[2] = test system: cow in lactation with moderate mastitis; experiment: Treatment of mastitis in a lactating cow with oxazolidinone plus bovine lactoferrin by intramammary infusion; conditions: 3-lactation cow in lactation, 300 mg in combination with 3 g bovine lactoferrin once per day for 5 consecutive days, composite suspension
Description: A 3-lactation cow in lactation with moderate mastitis is administered 300 mg of the oxazolidinone in EXAMPLE 2 in combination with administration of 3 g of bovine lactoferrin, once per day for 5 consecutive days. The oxazolidinone and the lactoferrin are prepared in a composite suspension formulation and administered by intramammary infusion.

cow without mastitis = experiment: Prevention of mastitis in a cow at the start of dry off period by intramammary infusion; conditions: 2-lactation cow without mastitis, single dose of 250 mg at start of dry off period, solution, mastitis occurs in untreated dry cows of same herd
Description: A 2-lactation cow without mastitis is administered a single dose of 250 mg of the oxazolidinone in EXAMPLE 2 at the start of dry off period. The oxazolidinone is formulated as a solution and administered by intramammary infusion. Although mastitis occurs in other dry cows that are in the same herd but are not treated with the oxazolidinones, the cow treated is not infected.

SMILES | mastitis status at the end of the treatment [1] | mastitis status at the end of the treatment [2] | occurrence of mastitis infection in treated cow (cow without mastitis)
CC(=O)NC[C@H]1CN(c2ccc(N3CCOCC3)c(F)c2)C(=O)O1 [EXAMPLE 1, (S)-N-[[3-[3-fluoro-4-(4-morpholinyl)phenyl]-2-oxo-5-oxazolidinyl]methyl]acetamide] | the mastitis is gone |  | 
CC(=O)NC[C@H]1CN(c2ccc(N3CCSCC3)c(F)c2)C(=O)O1 [EXAMPLE 2, N-[[(5S)-3-[3-fluoro-4-(4-thiomorpholinyl)phenyl]-2-oxo-1,3-oxazolidin-5-yl]methyl]acetamide] |  | the mastitis is gone | not infected
